Biological target: T1, FL hMALT1 enzyme (Homo sapiens, UniProt Q9UDY8)
T1 sequence (Q9UDY8 1-824): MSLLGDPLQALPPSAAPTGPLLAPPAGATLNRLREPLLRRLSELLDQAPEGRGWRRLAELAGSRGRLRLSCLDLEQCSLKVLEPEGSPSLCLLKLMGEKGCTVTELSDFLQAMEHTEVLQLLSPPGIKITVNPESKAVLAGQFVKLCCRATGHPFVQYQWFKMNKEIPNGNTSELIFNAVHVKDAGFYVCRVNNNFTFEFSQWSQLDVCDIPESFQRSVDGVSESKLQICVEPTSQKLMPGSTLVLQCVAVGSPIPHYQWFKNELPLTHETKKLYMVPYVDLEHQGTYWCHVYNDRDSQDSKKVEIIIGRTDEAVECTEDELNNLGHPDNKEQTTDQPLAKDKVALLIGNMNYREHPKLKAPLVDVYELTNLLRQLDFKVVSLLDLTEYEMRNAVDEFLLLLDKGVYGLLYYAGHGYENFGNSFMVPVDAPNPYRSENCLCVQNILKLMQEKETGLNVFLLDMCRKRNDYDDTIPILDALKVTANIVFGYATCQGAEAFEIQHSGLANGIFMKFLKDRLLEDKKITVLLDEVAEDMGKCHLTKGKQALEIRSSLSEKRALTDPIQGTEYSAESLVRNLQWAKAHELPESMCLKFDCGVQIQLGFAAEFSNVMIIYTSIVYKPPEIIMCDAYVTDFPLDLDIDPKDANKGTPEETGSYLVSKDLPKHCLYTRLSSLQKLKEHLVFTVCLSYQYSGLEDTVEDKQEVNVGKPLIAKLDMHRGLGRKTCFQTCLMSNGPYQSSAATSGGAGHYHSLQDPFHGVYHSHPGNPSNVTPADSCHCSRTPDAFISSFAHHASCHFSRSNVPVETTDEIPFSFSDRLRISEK
Assay: biochemical
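Further: Cell-free protease assay: enzyme preincubated with compound 30 min at room temperature, then cleavage of fluorogenic Ac-LVSR-AMC substrate (100 µM) tracked by fluorescence (ex 360/em 460 nm).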

SMILES | IC50 [µM]
CN(C(=O)C1CCS(=O)(=O)CC1)[C@@H](c1ccc(NC2Cc3ccc(C4CC4)cc3C2)cn1)C(F)(F)F (single isomer, unassigned) [Example 307] | 0.22
CN(C(=O)C1CCS(=O)(=O)CC1)[C@@H](c1ccc(NC2Cc3ccc(Cl)cc3C2)nc1)C(F)(F)F (single isomer, unassigned) [Example 288] | 1.64
CN(C(=O)C1CCS(=O)(=O)CC1)[C@@H](c1ccc(NC2Cc3cc(F)cc(F)c3C2)cn1)C(F)(F)F (single isomer, unassigned) [Example 268] | 3.4
CN(C(=O)C1COCC(=O)N1)[C@@H](c1ccc(NC2Cc3ccccc3C2(C)C)cn1)C(F)(F)F (single isomer, unassigned) [Example 163] | 0.19
CC(C)c1c(Cl)ccc2c1CC(Nc1ccc([C@H](N(C)C(=O)C3CCS(=O)(=O)CC3)C(F)(F)F)nc1)C2 (stereo partly drawn) [Example 369, N-((1S)-1-(5-((5-Chloro-4-isopropyl-2,3-dihydro-1H-inden-2-yl)amino)pyridin-2-yl)-2,2,2-trifluoroethyl)-N-methyltetrahydro-2H-thiopyran-4-carboxamide 1,1-dioxide] | 0.072
CN(C(=O)C1CC2(CCC(=O)N2)C1)[C@@H](c1ccc(NC2Cc3ccc(Cl)c(Cl)c3C2)cn1)C(F)(F)F (single isomer, unassigned) [Example 340] | 0.56
CN(C(=O)C1CNC(=O)CO1)[C@@H](c1ccc(NC2Cc3ccccc3C2(C)C)cn1)C(F)(F)F (single isomer, unassigned) [Example 135] | 0.45
CN(C(=O)C1CN(C(=O)C2COC2)C1)[C@@H](c1ccc(NC2Cc3ccc(Cl)c(F)c3C2)cn1)C(F)(F)F (single isomer, unassigned) [Example 370] | 1.37
Cc1nnc(N2CC(C(=O)N(C)[C@@H](c3ccc(NC4Cc5ccc(Cl)c(F)c5C4)cn3)C(F)(F)F)C2)o1 (single isomer, unassigned) [Example 365] | 3.64
CN(C(=O)C1CCS(=O)(=O)CC1)[C@@H](c1ccc(NC2Cc3cc(F)c(F)c(F)c3C2)cn1)C(F)(F)F (single isomer, unassigned) [Example 295] | 1.9
CN(C(=O)C1CCS(=O)(=O)CC1)[C@@H](c1ccc(NC2Cc3ccc(Cl)c(F)c3C2)cn1)C(F)(F)F (single isomer, unassigned) [Example 276] | 0.78
CNC(=O)C12CC(C(=O)N(C)[C@@H](c3ccc(N[C@@H]4Cc5ccccc5C4(C)C)cn3)C(F)(F)F)(C1)C2 [Example 203, N^1—((S)-1-(5-(((R)-1,1-Dimethyl-2,3-dihydro-1H-inden-2-yl)amino)pyridin-2-yl)-2,2,2-trifluoroethyl)-N^1,N^3-dimethylbicyclo[1.1.1]pentane-1,3-dicarboxamide] | 0.12
CN(C(=O)C1CN2CCC1CC2)[C@@H](c1ccc(NC2Cc3ccccc3C2(C)C)cn1)C(F)(F)F (single isomer, unassigned) [Example 138] | 0.78
CN(C(=O)C1CCS(=O)(=O)CC1)[C@@H](c1ccc(NC2Cc3cccc(C(F)(F)F)c3C2)nc1)C(F)(F)F (single isomer, unassigned) [Example 280] | 0.86
CC(=O)N1CCC12CC(C(=O)N(C)[C@@H](c1ccc(NC3Cc4ccccc4C3(C)C)cn1)C(F)(F)F)C2 (single isomer, unassigned) [Example 236] | 0.21
CN(C(=O)[C@H]1CNC(=O)C1)[C@@H](c1ccc(NC2Cc3ccc(Cl)c(Cl)c3C2)nc1)C(F)(F)F (single isomer, unassigned) [Example 346] | 1.1
CN(C(=O)[C@@H]1CNC(=O)C1)[C@@H](c1ccc(N[C@H]2Cc3ccc(Cl)c(F)c3C2)cn1)C(F)(F)F (single isomer, unassigned) [Example 316] | 1.1

SMILES | IC50 [µM]
CN(C(=O)C1CCCNC1)[C@@H](c1ccc(NC2Cc3ccccc3C2(C)C)cn1)C(F)(F)F (single isomer, unassigned) [Example 127] | 0.3
CN(C(=O)CN1CCNC1=O)[C@@H](c1ccc(NC2Cc3ccccc3C2(C)C)cn1)C(F)(F)F (single isomer, unassigned) [Example 246] | 0.33
CN(C(=O)[C@@H]1CNC(=O)C1)[C@@H](c1ccc(NC2Cc3ccc(Cl)c(C4CC4)c3C2)cn1)C(F)(F)F (single isomer, unassigned) [Example 327] | 0.57
CN(C(=O)C1CCS(=O)(=O)CC1)[C@@H](c1ccc(NC2Cc3cc(F)c(Br)cc3C2)cn1)C(F)(F)F (stereo partly drawn) [Example 310, N-((1S)-1-(5-((5-Bromo-6-fluoro-2,3-dihydro-1H-inden-2-yl)amino)pyridin-2-yl)-2,2,2-trifluoroethyl)-N-methyltetrahydro-2H-thiopyran-4-carboxamide 1,1-dioxide] | 0.43
CN(C(=O)CN1CC(=O)NC1=O)[C@@H](c1ccc(NC2Cc3ccccc3C2(C)C)cn1)C(F)(F)F (single isomer, unassigned) [Example 213] | 0.5
CN(C(=O)C1C2CS(=O)(=O)CC21)[C@@H](c1ccc(NC2Cc3ccccc3C2(C)C)cn1)C(F)(F)F (single isomer, unassigned) [Example 214] | 0.32
CN(C(=O)C1CCNCC1)[C@@H](c1ccc(NC2Cc3ccccc3C2(C)C)nc1)C(F)(F)F (single isomer, unassigned) [Example 149] | 0.24
CN(C(=O)C1CN2CCC1CC2)[C@@H](c1ccc(NC2Cc3ccccc3C2(C)C)nc1)C(F)(F)F (single isomer, unassigned) [Example 123] | 0.87
CN(C(=O)C1CCS(=O)(=O)C1)[C@@H](c1ccc(NC2Cc3ccc(Cl)c(Cl)c3C2)cn1)C(F)(F)F (single isomer, unassigned) [Example 357] | 0.69
CN(C(=O)C1CN2CCC1CC2)[C@@H](c1ccc(NC2Cc3ccccc3C2(C)C)nc1)C(F)(F)F (single isomer, unassigned) [Example 121] | 0.51
CN(C(=O)C1CCS(=O)(=O)CC1)[C@@H](c1ccc(NC2Cc3cccc(Cl)c3C2)cn1)C(F)(F)F (single isomer, unassigned) [Example 264] | 1.2
CN(C(=O)CN1CC(=O)NC1=O)[C@@H](c1ccc(NC2Cc3ccccc3C2(C)C)cn1)C(F)(F)F (single isomer, unassigned) [Example 212] | 0.13
CN(C(=O)C1CCS(=O)(=O)CC1)[C@@H](c1ccc(NC2Cc3ccc(Cl)c(Cl)c3C2)nc1)C(F)(F)F (single isomer, unassigned) [Example 344] | 0.31
CN(C(=O)C1CCS(=O)(=O)CC1)[C@@H](c1ccc(NC2Cc3ccc(Cl)c(F)c3C2)nc1)C(F)(F)F (single isomer, unassigned) [Example 331] | 0.4
CN(C(=O)[C@@H]1CC[C@H](NC(=O)C(F)(F)F)C1)[C@@H](c1ccc(N[C@H]2Cc3ccccc3C2(C)C)cn1)C(F)(F)F [Example 184, (1R,3S)—N—((S)-1-(5-(((S)-1,1-Dimethyl-2,3-dihydro-1H-inden-2-yl)amino)pyridin-2-yl)-2,2,2-trifluoroethyl)-N-methyl-3-(2,2,2-trifluoroacetamido)cyclopentane-1-carboxamide] | 0.15
CN(C(=O)C1CC2(CCC(=O)N2)C1)[C@@H](c1ccc(NC2Cc3ccccc3C2(C)C)cn1)C(F)(F)F (single isomer, unassigned) [Example 231] | 0.11

From patent US20260184687A1, “DIHYDROINDENE DERIVATIVES AS MALT1 INHIBITORS” (C4X Discovery Limited, priority 2022, published 2026)
